Reference: publication PMC2225630 (The Journal of General Physiology, 1966)
“And” between values parts separate entries of the source, which are not always exact repeats. Identical values can stand only once. Like-named read-outs stand apart in the source and are kept apart here.

What was measured:
[1] = test system: Na+-insensitive uptake, Ehrlich cell; assay: Uptake of amino acids by Ehrlich cells from Na+-free medium; format: cell-based, mice; conditions: for Km: read-out: Km for the other amino acid (Table V), choline medium, 37 C, pH 7.4, 1 min, only approximate; for Km / Ratio of uptake Methionine/other amino acid (Table VI): absence of Na+; for inhibitory action on the uptake of methionine: choline has replaced Na+ (Table I); for Uptake of methionine in presence of inhibitor (Table I): labeled methionine 1 mM; for Uptake of methionine in presence of inhibitor (Table I) / Uptake of AIB in presence of inhibitor (Table I) / Uptake of labeled amino acid without inhibitor (Table I): no Na+; for uptake (Table II): amino acid 1 mM, [Na+] 0; for Rate of methionine uptake (Table IV): 1 mM, Na+-free Krebs-Ringer phosphate medium; for Uptake of AIB in presence of inhibitor (Table I): labeled AIB 1 mM; for Uptake of labeled amino acid without inhibitor (Table I): labeled amino acid 1 mM, inhibitor 0
[2] = test system: Na+-sensitive transport system (system A) of the Ehrlich cell; assay: Na+-sensitive uptake of amino acids; format: cell-based, mice
Ehrlich cell [3] = conditions: first minute, high amino acid levels; cited from earlier work
Ehrlich cell [4] = format: cell-based, mice; conditions: above 16 mM methionine, modified KRB medium with Na+, 1 min, 37 C, pH 7.4
[5] = read-out: Km of Na+-sensitive uptake, [Na+] 107 mEq/liter, 1 min, 37 C, pH 7.4
[6] = [Na+] 107 mEq/liter, 1 min, 37 C, pH 7.4
[7] = methionine 0.25 mM + AIB 1.0 mM, 1 min, 37 C, pH 7.4
[8] = methionine 0.5 mM + AIB 2.0 mM, 1 min, 37 C, pH 7.4
[9] = methionine 1.0 mM + AIB 4.0 mM, 1 min, 37 C, pH 7.4
[10] = choline chloride substituting for NaCl, Exp. 1
[11] = choline chloride substituting for NaCl, Exp. 2
[12] = sucrose substituting for NaCl, Exp. 1
[13] = sucrose substituting for NaCl, Exp. 2

## CC(C)[C@H](N)C(=O)O [valine]
[1]
  Km: 750 µM

## CNC(C)(C)C(=O)O [MeAIB, α-(methylamino)-isobutyric acid, reference compound]
[2]; [5]
  Km: ~300 µM
[1]
  inhibitory action on the uptake of methionine: no significant action
[1]; inhibitor 16 mM
  Uptake of methionine in presence of inhibitor (Table I): 1.77 mmoles/kg cell water-min

## CC(C)(N)C(=O)O [AIB, a-aminoisobutyric acid, reference compound]
Ehrlich cell [3]
  rate of permeation at high levels ("nonsaturable" migration): 0.1 min-'
[2]; [6]
  Vmax of Na+-sensitive uptake: 5 mmoles/kg cell water min
[2]
  Vmax, velocities extrapolated to infinite [Na+]: 7.1 mM/kg cell water min
[2]; [7]
  Sodium-sensitive uptake rate of the test amino acid in mixture (Table III): 0.51 mmoles/kg cell water min
[2]; [8]
  Sodium-sensitive uptake rate of the test amino acid in mixture (Table III): 0.64 mmoles/kg cell water min
[2]; [9]
  Sodium-sensitive uptake rate of the test amino acid in mixture (Table III): 0.77 mmoles/kg cell water min
[2]; [5]
  Km: 2000 µM
[1]; [10]
  uptake (Table II): 0.16 mmoles/kg cell water min
[1]; [11]
  uptake (Table II): 0.21 mmoles/kg cell water min
[1]; [12]
  uptake (Table II): 0.21 mmoles/kg cell water min
[1]; [13]
  uptake (Table II): 0.29 mmoles/kg cell water min
[1]
  inhibitory action on the uptake of methionine: no significant inhibitory action
[1]; inhibitor 4 mM
  Uptake of methionine in presence of inhibitor (Table I): 2.63 mmoles/kg cell water-min
[1]; inhibitor 8 mM
  Uptake of methionine in presence of inhibitor (Table I): 2.62 mmoles/kg cell water-min

## NCC(=O)O [glycine]
[2]; difference method of Fig. 5
  Vmax of Na+-sensitive uptake: 7.4 mmoles per kg cell water min

## C[C@H](N)C(=O)O [alanine]
[2]; difference method of Fig. 5
  Vmax of Na+-sensitive uptake: 6.4 mmoles per kg cell water min

## CC(C)C[C@H](N)C(=O)O [leucine]
[1]
  Km: 150 µM

## CSCC[C@H](N)C(=O)O [methionine, L-methionine]
[2]; Na+ at 107 mEq/liter, Fig. 10
  inhibition of the saturable uptake of AIB: so nearly complete
[2]; [6]
  Vmax of Na+-sensitive uptake: 4 mmoles/kg cell water min and 3.7 mmoles/kg cell water min
[2]
  Vmax, velocities extrapolated to infinite [Na+]: 5.0 mM/kg cell water min
[2]; in the presence of Na+
  inhibition of the uptake of MeAIB: inhibits almost completely
[2]; methionine 0.25 mM + AIB 1.0 mM
  Ratio of uptake rates methionine/AIB (Table III): 1.1
[2]; [7]
  Sodium-sensitive uptake rate of the test amino acid in mixture (Table III): 0.58 mmoles/kg cell water min
[2]; methionine 0.5 mM + AIB 2.0 mM
  Ratio of uptake rates methionine/AIB (Table III): 1.5
[2]; [8]
  Sodium-sensitive uptake rate of the test amino acid in mixture (Table III): 0.99 mmoles/kg cell water min
[2]; methionine 1.0 mM + AIB 4.0 mM
  Ratio of uptake rates methionine/AIB (Table III): 1.4
[2]; [9]
  Sodium-sensitive uptake rate of the test amino acid in mixture (Table III): 1.04 mmoles/kg cell water min
[2]; [5]
  Km: 300 µM
[2]; read-out: Km, velocities extrapolated to infinite [Na+], data of Fig. 12 left
  Km: 140 µM
[1]; pH 5.6, Exp. 1
  Rate of methionine uptake (Table IV): 3.03 mmoles/kg cell water min
[1]; pH 5.6, Exp. 2
  Rate of methionine uptake (Table IV): 2.99 mmoles/kg cell water min
[1]; pH 6.3, Exp. 1
  Rate of methionine uptake (Table IV): 3.03 mmoles/kg cell water min
[1]; pH 6.3, Exp. 2
  Rate of methionine uptake (Table IV): 3.08 mmoles/kg cell water min
[1]; pH 7.0, Exp. 1
  Rate of methionine uptake (Table IV): 2.86 mmoles/kg cell water min
[1]; pH 7.0, Exp. 2
  Rate of methionine uptake (Table IV): 2.87 mmoles/kg cell water min
[1]; Na+ replaced with choline+ (Table I)
  inhibitory action on the residual uptake of AIB: negligible inhibitory action
[1]; after 1 min, all Na+ eliminated from the medium
  distribution ratio (cellular level to extracellular level): 2.25
[1]; [10]
  uptake (Table II): 1.35 mmoles/kg cell water min
[1]; [11]
  uptake (Table II): 2.48 mmoles/kg cell water min
[1]; [12]
  uptake (Table II): 1.44 mmoles/kg cell water min
[1]; [13]
  uptake (Table II): 2.79 mmoles/kg cell water min
[1]; inhibitor 0.5 mM
  Uptake of AIB in presence of inhibitor (Table I): 0.17 mmoles/kg cell water-min
[1]; inhibitor 1 mM
  Uptake of AIB in presence of inhibitor (Table I): 0.14 mmoles/kg cell water-min
[1]; experiment with AIB as inhibitor
  Uptake of labeled amino acid without inhibitor (Table I): 2.68 mmoles/kg cell water-min
[1]; experiment with MeAIB as inhibitor
  Uptake of labeled amino acid without inhibitor (Table I): 1.77 mmoles/kg cell water-min
[1]; methionine and leucine, each 0.2 mM
  Ratio of uptake Methionine/other amino acid (Table VI): 0.99
[1]; methionine and leucine, each 0.4 mM
  Ratio of uptake Methionine/other amino acid (Table VI): 0.94
[1]; methionine and leucine, each 0.8 mM
  Ratio of uptake Methionine/other amino acid (Table VI): 0.92
[1]; methionine and leucine, each 1.6 mM
  Ratio of uptake Methionine/other amino acid (Table VI): 0.99
[1]; methionine and valine, each 0.25 mM
  Ratio of uptake Methionine/other amino acid (Table VI): 3.2
[1]; methionine and valine, each 0.5 mM
  Ratio of uptake Methionine/other amino acid (Table VI): 2.18
[1]; methionine and valine, each 1.0 mM
  Ratio of uptake Methionine/other amino acid (Table VI): 1.65
[1]; methionine and valine, each 2.0 mM
  Ratio of uptake Methionine/other amino acid (Table VI): 1.33
Ehrlich cell [4]
  linear slope of increase of uptake rate with methionine concentration: 0.09 min- l
